Measured values: article PMC10892419, “UHPLC-MS/MS Assay for Quantification of Legubicin, a Novel Doxorubicin-Based Legumain-Activated Prodrug, and Its Application to Pharmacokinetic and Tissue Distribution Studies” (Molecules, 2024)

Legend:
[1] = Single-dose pharmacokinetic study of legubicin, i.v.; conditions: free metabolite in plasma, male SD rats; for Tmax: n = 3, median [min, max]; for AUClast / Cmax: n = 3, mean ± SD
Protocol: The pharmacokinetic parameters are outlined in Table 5. […] A power-function model was used to fit the relationship between exposure level (Cmax, AUClast, and AUCINF_obs) parameters and dose, and the power exponent (parameter β) and its 90% confidence interval were obtained (see Table S5).
(§1) The mixture was vortexed for 3 min, and then centrifuged at 22,000× g at 4 °C for 10 min. A final analysis was conducted by injecting 5 µL supernatant into a UHPLC-MS/MS system. Mouse plasma samples were treated in the same way as the rat plasma samples, except for protein precipitation, with 200 µL of 5 pmol/mL IS working solution and injection of 2 µL of supernatant for analysis.
(§2) (1) For the hydrolysis process, an aliquot of 25 µL of rat/mouse plasma was transferred into an Eppendorf tube, and then 50 µL of enzyme digestion buffer and 25 µL of legumain enzyme were placed into the tube. The mixture was vortexed for 1 min, and then incubated in a water bath for 24 h at 37 °C for enzymatic hydrolysis. (2) For the protein precipitation process, 1000 µL of IS working solution (5 pmol/mL and 50 pmol/mL for rat and mouse plasmas, respectively) was added to the enzymatic-hydrolysis solution. Then, the sample was vortexed for 3 min and centrifuged at 22,000× g for 10 min at 4 °C. Analyses were performed on the 3 µL aliquot of the solution used in the UHPLC-MS/MS system.
(§3) Twenty-four rats, inclusive of both sexes, were randomly distributed into four groups. Groups 1, 2, and 3 were single-dose groups, among which the subjects received legubicin via tail intravenous injection (a dose of 1.5, 5, or 15 mg/kg; i.e., 1.36, 4.52, or 13.6 µmol/kg). The fourth group was utilized for a multi-dose study at 5 mg/kg (once-weekly for 4 consecutive weeks). Blood samples of approximately 150 µL were taken from the jugular vein at 0 h (pre-dosing) and at 0.167 h (10 min), 0.5 h, 1 h, 2 h, 4 h, 8 h, 24 h, 48 h, and 72 h post-dosing in the single-dose groups. Samples were also obtained on days 1 and 22 for the multiple-dose group in the same way as for the single-dose groups. However, on days 8 and 15, samples were taken only before and 10 min after administration. The K2EDTA quantities containing blood samples were centrifuged (4 °C, 4000 rpm, 10 min) to collect plasma samples, which were separated into EP tubes and kept at −80 °C until further assay.
(§4) The analysis software (Version 1.5.2, AB Sciex, Vaughan, ON, Canada) was applied to data acquisition and quantification. Pharmacokinetic parameters were calculated with WinNonlin Phoenix (v6.4, Pharsight, Mountain View, CA, USA) with the noncompartmental method, and were presented as mean ± SD (%CV). The “Best fit” strategy in the WinNonlin Phoenix was used for the calculation of elimination half-life and the selection of the elimination phase. Graphs were plotted by GraphPad Software (GraphPad Prism 8.0.2; GraphPad Software, Inc., La Jolla, CA, USA).

[2] = Multiple-dose pharmacokinetic study of legubicin, weekly i.v. for 4 weeks; conditions: free metabolite in plasma, weekly i.v. legubicin 5 mg/kg; for Tmax: median [min, max]; for AUClast / Cmax: n = 3
Protocol: as §1, §2, §3, §4

[3] = Storage stability of analytes in rat plasma (method validation); conditions: for Auto-Sampler Stability at 2–8 °C (72 h), Bias / Auto-Sampler Stability at 2–8 °C (72 h), Measured Concentration: processed rat plasma; for Auto-Sampler Stability at 2–8 °C (72 h), Bias / Short-Term Stability at Room Temperature (4 h), Bias / Freeze and Thaw Stability at −80 °C/Room Temperature (3 Cycles), Bias / Long-Term Stability at −80 °C (70 days), Bias: n = 6; for Auto-Sampler Stability at 2–8 °C (72 h), Measured Concentration / Freeze and Thaw Stability at −80 °C/Room Temperature (3 Cycles), Measured Concentration / Long-Term Stability at −80 °C (70 days), Measured Concentration / Short-Term Stability at Room Temperature (4 h), Measured Concentration: n = 6, mean ± SD; for Short-Term Stability at Room Temperature (4 h), Bias / Freeze and Thaw Stability at −80 °C/Room Temperature (3 Cycles), Bias / Long-Term Stability at −80 °C (70 days), Bias / Freeze and Thaw Stability at −80 °C/Room Temperature (3 Cycles), Measured Concentration / Long-Term Stability at −80 °C (70 days), Measured Concentration / Short-Term Stability at Room Temperature (4 h), Measured Concentration: rat plasma; for Short-Term Stability at Room Temperature (4 h), Bias: bias from nominal
Protocol: By investigating low- and high-concentration stability QCs in six replicates at different storage conditions, autosampler, short-term (bench-top), freeze and thaw, and long-term stability evaluations were conducted.

[4] = female SD rats, multiple dose (day 22)
[5] = female SD rats, single dose (day 1)
[6] = male SD rats, multiple dose (day 22)
[7] = male SD rats, single dose (day 1)
[8] = high QC (Leu-DOX 4000, DOX 1200 pmol/mL, conjugate 80 nmol/mL)
[9] = high QC (nominal Leu-DOX 4000, DOX 1200 pmol/mL)
[10] = low QC (Leu-DOX 10, DOX 3 pmol/mL, conjugate 0.2 nmol/mL)
[11] = low QC (nominal Leu-DOX 10, DOX 3 pmol/mL)

With `COc1cccc2c1C(=O)c1c(O)c3c(c(O)c1C2=O)C[C@@](O)(C(=O)CO)C[C@@H]3O[C@H]1C[C@H](NC(=O)[C@@H](N)CC(C)C)[C@H](O)[C@H](C)O1` [Leu-DOX, N-L-leucyl-doxorubicin] the Tmax ([1]; single i.v. legubicin 1.5 mg/kg) was 0.167 [0.167, 0.167] h, the AUClast ([1]; single i.v. legubicin 5 mg/kg) was 0.0943 ± 0.0105 µM·h and the Cmax ([1]; single i.v. legubicin 5 mg/kg) was 145 ± 23.9 nM. For the same compound, the Tmax ([1]; single i.v. legubicin 5 mg/kg) was 0.167 [0.167, 0.167] h, the AUClast ([1]; single i.v. legubicin 15 mg/kg) was 1.03 ± 0.244 µM·h and the Cmax ([1]; single i.v. legubicin 15 mg/kg) was 1100 ± 243 nM. For the same compound, the Tmax ([1]; single i.v. legubicin 15 mg/kg) was 0.167 [0.167, 0.167] h, the Tmax [2, 4] was 0.167 [0.167, 0.167] h and the AUClast [2, 4] was 0.0604 ± 0.00643 µM·h. The Cmax [2, 4] was 80.3 ± 8.57 nM, the Tmax [2, 5] was 0.167 [0.167, 0.167] h and the AUClast [2, 5] was 0.0387 ± 0.00104 µM·h. For the same compound, the Cmax [2, 5] was 60.0 ± 6.89 nM, the Tmax [2, 6] was 0.167 [0.167, 0.167] h and the AUClast [2, 6] was 0.112 ± 0.014 µM·h. For the same compound, the Cmax [2, 6] was 141 ± 22.0 nM, the Tmax [2, 7] was 0.167 [0.167, 0.167] h and the AUClast [2, 7] was 0.081 ± 0.0133 µM·h. For the same compound, the Cmax [2, 7] was 111 ± 13.5 nM, the “Auto-Sampler Stability at 2–8 °C (72 h), Bias” value [3, 8] was −6.0% and the “Auto-Sampler Stability at 2–8 °C (72 h), Measured Concentration” value [3, 9] was 3758.33 ± 422.58 nM. The “Auto-Sampler Stability at 2–8 °C (72 h), Bias” value [3, 10] was −0.4%, the “Auto-Sampler Stability at 2–8 °C (72 h), Measured Concentration” value [3, 11] was 9.96 ± 0.48 nM and the “Short-Term Stability at Room Temperature (4 h), Bias” value [3, 8] was −3.2%. The “Freeze and Thaw Stability at −80 °C/Room Temperature (3 Cycles), Bias” value [3, 8] was −5.6%, the “Long-Term Stability at −80 °C (70 days), Bias” value [3, 8] was 7.5% and the “Freeze and Thaw Stability at −80 °C/Room Temperature (3 Cycles), Measured Concentration” value [3, 9] was 3775.00 ± 329.89 pmol/mL. The “Long-Term Stability at −80 °C (70 days), Measured Concentration” value [3, 9] was 4300.00 ± 240.83 pmol/mL, the “Short-Term Stability at Room Temperature (4 h), Measured Concentration” value [3, 9] was 3871.67 ± 390.25 pmol/mL and the “Short-Term Stability at Room Temperature (4 h), Bias” value [3, 10] was −2.4%. For the same compound, the “Freeze and Thaw Stability at −80 °C/Room Temperature (3 Cycles), Bias” value [3, 10] was 2.0%, the “Long-Term Stability at −80 °C (70 days), Bias” value [3, 10] was 0.7% and the “Freeze and Thaw Stability at −80 °C/Room Temperature (3 Cycles), Measured Concentration” value [3, 11] was 10.20 ± 0.70 pmol/mL. For the same compound, the “Long-Term Stability at −80 °C (70 days), Measured Concentration” value [3, 11] was 10.07 ± 1.50 pmol/mL and the “Short-Term Stability at Room Temperature (4 h), Measured Concentration” value ([3]; low QC (nominal Leu-DOX 10, DOX 3 pmol/mL), UHPLC-MS/MS) was 9.76 ± 0.41 pmol/mL.
